According to patent US20230390282A1, “TREATMENT OF EYE CONDITIONS” (The University of Birmingham, priority 2020, published 2023):
Entries after “also recorded” stand apart in the source; their conditions may differ.

What was measured:
[1] = system: dorsal root ganglion neuron (DRGN) cultures; assay: Primary adult rat DRGN cultures: survival and neurite outgrowth; type: cell-based
Description: (§1) Rat DRGN and retinal cultures. […] Cells were cultured for 4 days in a humidified chamber at 37° C. and 5% CO2 before being subjected to quantitative RT-PCR or immunocytochemistry, as described below.

dorsal column (DC) axons = assay: T8 dorsal column (DC) crush model of spinal cord injury: axon regeneration, electrophysiology, sensory and locomotor tests; type: in vivo, rat; conditions: for DC axon regeneration: GAP43+ axons rostral to/beyond the lesion site
Description: DC crush injury model. Rats were injected subcutaneously with 0.05 ml Buprenorphine to provide analgesia prior to surgery and anaesthetised using 5% of Isoflurane in 1.8 ml/l of O2 with body temperature and heart rate monitored throughout surgery.
Chk2 inhibition studies in the DC crush injury model. […] Chk1i (LY2603618) was used at equimolar concentrations for each experiment. Rats were killed in a rising concentration of CO2 at either 28 d for immunohistochemistry and western blot analyses or 6 weeks for electrophysiology and functional tests.
Sham treated animals (partial laminectomy but no DC injury) were also included as additional controls. At 4 weeks after DC injury and treatment, ipsilateral L4/L5 DRG pairs were harvested, total RNA extracted using Trizol reagent as described above and knock down of Chk1 and Chk2 mRNA knockdown using quantitative qRT-PCR, as described above. Contralateral L4/L5 DRG pairs were treated the same as above and used as controls. […] This included western blot to determine pChk1 and pChk2 levels after shChk2 treatment. For these experiments, animals were randomly assigned to DC+shNull and DC+shChk2 groups each comprising n=6 rats and repeated on 3 independent occasions (total n=18 rats/group). […] Animals were allowed to survive for 6 weeks with functional testing (tape sensing+removal and ladder crossing tests) performed pre- and post-DC injury as described below. Electrophysiology was performed on the same set of animals at 6 weeks after DC injury and treatment as described below.
Quantification of DC axon regeneration. […] Briefly, the number of intersections of GAP43^+ fibers were counted through a dorsoventral orientated line in reconstructed serial parasagittal sections of the cord (serial 50μm-thick sections ˜70-80 sections/animal; n=10 rats/treatment)). Axon number was then represented as % of fibers counted at 4 mm above the lesion, where the DC was intact.
Electrophysiology. […] Briefly, with the experimenter masked to the treatment conditions, silver wire electrodes applied single-current pulses (0.05 ms) through a stimulus isolation unit in increments (0.2, 0.3, 0.6, 0.8, and 1.2 mA) at L1-L2 and compound action potentials (CAP) were recorded at C4-C5 along the surface of the midline spinal cord. Spike 2 software was then used to calculate CAP amplitudes between the negative deflection after the stimulus artifact and the next peak of the wave. CAP area was calculated by rectifying the negative CAP component (full-wave rectification) and measuring its area. At the different stimulation intensities. […] Representative CAP traces are processed output data from Spike 2 software.
Functional tests. […] Briefly, animals (n=6 rats/group, 3 independent repeats; total n=18/group) received training to master traversing the horizontal ladder for 1w before functional testing. Baseline parameters for all functional tests were established 2-3 d before injury. Animals were then tested 2 d after DC lesion+treatment and then weekly for 6 weeks. Experiments were performed by 2 observers (treatment conditions were masked) in the same order, the same time of day and each test performed for 3 individual trials. Horizontal ladder test: This tests the animals locomotor function and is performed on a 0.9-meter-long horizontal ladder with a diameter of 15.5 cm and randomly adjusted rungs with variable gaps of 3.5-5.0 cm. The total number of steps taken to cross the ladder and the left and right rear paw slips being were recorded and the mean error rate was then calculated by dividing the number of slips by the total number of steps taken.

RGC [2] = conditions: 24 days after ONC
RGC [3] = assay: Rat retinal cultures: RGC survival and neurite outgrowth; type: cell-based; conditions: 1-50 μM
Description: as §1

RGC [4] = assay: Glaucoma model (intracameral TGFβ): RGC survival; type: in vivo, rat; conditions: 30 days after the induction of glaucoma
Description: Induction of glaucoma. […] Intraocular pressure was measured using an iCare
Tonolab rebound tonometer (Icare, Helsinki, Finland).

RGC [5] = assay: Optic neuritis model: RGC survival and RNFL thickness; type: in vivo, mice
Description: Induction of optic neuritis. […] Animals were intraperitoneally injected with 150 ng Bordetella pertussis toxin on day 0 and 2. Animals were monitored daily and assessed for the development of EAE. At the end of the experiment, animals were then killed by CO2 overdose.
Measurement of RNFL thinning using optical coherence tomography (OCT). A Spectralis HRA+OCT machine was used to capture OCT images. Examinations were recorded in both right (oculus dextrus, OD) and left eyes (oculus sinister, OS) of each animal at day 0 and day 21 after immunisation. […] A RNFL single exam using the automatic real time (ART) mode (allows averaging of 100 recordings) was produced for each mouse eye, which automatically measured RNFL thickness (μm) in a 30° circle surrounding the optic nerve head.

[6] = Chk2i: 3 weeks after injury, others over the whole 6 weeks

Compound | % DRGN with neurites ([1]; 4 days in culture) [%] | mean neurite length ([1]; 4 days in culture, controls 12 μm) [μm] | DC axon regeneration (dorsal column (DC) axons) | improvement in RGC function measured by flash electroretinography (ERG) amplitude (RGC [2]) [%] | effect on DRGN survival ([1]; 1-50 μM) | neurite outgrowth in DRGN ([1]; 4 days in culture) | DRGN survival ([1]; 4 days in culture, NBA-treated controls 40%) | mean CAP area at different stimulation intensities (dorsal column (DC) axons; 6 weeks after DC injury) | negative CAP amplitudes (dorsal column (DC) axons; 6 weeks after DC injury, all stimulation intensities) | ladder crossing test (locomotor function) outcome (dorsal column (DC) axons; [6]) | tape sensing/removal test (sensory function) outcome (dorsal column (DC) axons; [6]) | effect on RGC survival (RGC [3]) | protection of RGC from death (RGC [4]) | protection of RGC from death (RGC [5]; 21 days after induction) | protection against retinal nerve fibre layer thinning (RGC [5]; OCT at day 21) | effect on ERG traces (RGC [2])
FGF2: positive control for DRGN cultures, pre-optimised 10 ng/ml | 42 | 180 |  |  |  |  |  |  |  |  |  |  |  |  |  | 
COc1cc2nc(-c3cc(F)ccc3O)nc(N[C@@H]3CNC[C@H]3C(C)(C)O)c2cc1OC [Chk2i] |  |  | significant DC axon regeneration | > 83 |  |  |  |  |  |  |  |  |  |  |  | 
Cc1cnc(NC(=O)Nc2cc(Br)c(C)cc2OC[C@@H]2CNCCO2)cn1 [Chk1i] |  |  | no axon regeneration beyond the lesion site |  | no effect | no effect | no effect | significantly attenuated | significantly attenuated | significant deficit remains; also recorded: deficit remaining | significant deficit remained | no effect | no effect | no effect | no effect | no effect
